Laboratory results published in ChEMBL document CHEMBL1909046, “DrugMatrix in vitro pharmacology data”.

Legend:
[1] = molecular target: 5-hydroxytryptamine receptor 6 (Homo sapiens, UniProt P50406); format: cell membranes, HeLa, Membrane; conditions: hela; also: in other assays of this panel Not Active means under 50% inhibition at 10 µM
[2] = molecular target: Vasopressin V1a receptor (Homo sapiens, UniProt P37288); format: cell membranes, Membrane; conditions: hek293; also: in other assays of this panel Not Active means under 50% inhibition at 10 µM
[3] = molecular target: T1, C-C chemokine receptor type 4 (Homo sapiens, UniProt P51679); format: cell membranes, Chem-1, Membrane; conditions: chem-1; also: in other assays of this panel Not Active means under 50% inhibition at 10 µM
T1 sequence (P51679 whole entry): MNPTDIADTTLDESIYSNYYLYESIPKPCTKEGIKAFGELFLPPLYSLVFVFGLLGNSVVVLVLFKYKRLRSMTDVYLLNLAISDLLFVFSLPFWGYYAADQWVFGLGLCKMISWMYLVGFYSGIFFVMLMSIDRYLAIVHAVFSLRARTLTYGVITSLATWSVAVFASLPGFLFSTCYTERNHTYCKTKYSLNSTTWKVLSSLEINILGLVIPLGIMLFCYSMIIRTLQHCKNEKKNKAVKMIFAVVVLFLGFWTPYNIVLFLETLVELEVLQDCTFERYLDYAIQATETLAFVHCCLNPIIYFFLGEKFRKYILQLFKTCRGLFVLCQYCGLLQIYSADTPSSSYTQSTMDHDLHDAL

[4] = molecular target: Nitric oxide synthase 1 (Rattus norvegicus, UniProt P29476); format: tissue-based, Cerebellum; also: in other assays of this panel Not Active means under 50% inhibition at 10 µM
[5] = molecular target: Matrix metalloproteinase-9 (Homo sapiens, UniProt P14780); format: cell-based
[6] = molecular target: Receptor tyrosine-protein kinase erbB-2 (Homo sapiens, UniProt P04626); format: cell-based; conditions: insect cells
[7] = molecular target: T2, Receptor-type tyrosine-protein phosphatase C (Homo sapiens, UniProt P08575); set-up: species or system Escherichia coli
T2 sequence (P08575 whole entry): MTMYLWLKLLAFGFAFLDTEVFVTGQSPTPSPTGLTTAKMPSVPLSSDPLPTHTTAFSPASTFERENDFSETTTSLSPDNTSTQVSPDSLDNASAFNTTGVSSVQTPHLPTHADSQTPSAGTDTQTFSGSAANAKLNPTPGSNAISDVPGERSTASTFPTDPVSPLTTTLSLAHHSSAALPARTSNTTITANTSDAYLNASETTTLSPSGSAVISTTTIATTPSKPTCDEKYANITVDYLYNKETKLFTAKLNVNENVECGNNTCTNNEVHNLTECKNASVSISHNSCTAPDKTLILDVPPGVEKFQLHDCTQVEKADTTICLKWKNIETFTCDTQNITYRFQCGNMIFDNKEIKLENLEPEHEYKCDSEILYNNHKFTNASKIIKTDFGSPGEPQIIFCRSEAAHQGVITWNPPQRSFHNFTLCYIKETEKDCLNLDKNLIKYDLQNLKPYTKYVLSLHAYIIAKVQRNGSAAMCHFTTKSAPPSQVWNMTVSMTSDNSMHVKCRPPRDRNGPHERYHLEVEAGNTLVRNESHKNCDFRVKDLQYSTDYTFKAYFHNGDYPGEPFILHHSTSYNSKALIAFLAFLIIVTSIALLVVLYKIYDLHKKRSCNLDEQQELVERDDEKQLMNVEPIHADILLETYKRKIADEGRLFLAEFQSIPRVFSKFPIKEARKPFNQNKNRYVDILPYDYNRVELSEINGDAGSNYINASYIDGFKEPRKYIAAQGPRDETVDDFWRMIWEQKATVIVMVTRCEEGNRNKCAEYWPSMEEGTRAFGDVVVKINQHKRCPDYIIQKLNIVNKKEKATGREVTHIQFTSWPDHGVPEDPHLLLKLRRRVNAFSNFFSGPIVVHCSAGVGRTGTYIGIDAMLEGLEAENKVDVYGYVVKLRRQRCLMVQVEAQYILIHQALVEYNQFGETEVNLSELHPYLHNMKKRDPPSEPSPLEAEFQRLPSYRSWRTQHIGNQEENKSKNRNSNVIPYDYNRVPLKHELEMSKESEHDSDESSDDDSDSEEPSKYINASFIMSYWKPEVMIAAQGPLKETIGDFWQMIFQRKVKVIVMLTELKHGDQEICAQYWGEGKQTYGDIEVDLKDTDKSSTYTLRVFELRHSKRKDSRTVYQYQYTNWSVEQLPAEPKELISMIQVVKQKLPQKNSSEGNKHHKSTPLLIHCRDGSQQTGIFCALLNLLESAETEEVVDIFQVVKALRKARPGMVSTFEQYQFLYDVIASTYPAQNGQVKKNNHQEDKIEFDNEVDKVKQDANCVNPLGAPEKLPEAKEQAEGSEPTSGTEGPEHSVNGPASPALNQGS

[8] = molecular target: Adenosine receptor A2a (Homo sapiens, UniProt P29274); assay: DRUGMATRIX: Adenosine A2A radioligand binding (ligand: […]); format: cell membranes, HEK293, Membrane; conditions: hek293; Not Active = under 50% inhibition at 10 µM
Adenosine receptor A2a, sequence (P29274 whole entry): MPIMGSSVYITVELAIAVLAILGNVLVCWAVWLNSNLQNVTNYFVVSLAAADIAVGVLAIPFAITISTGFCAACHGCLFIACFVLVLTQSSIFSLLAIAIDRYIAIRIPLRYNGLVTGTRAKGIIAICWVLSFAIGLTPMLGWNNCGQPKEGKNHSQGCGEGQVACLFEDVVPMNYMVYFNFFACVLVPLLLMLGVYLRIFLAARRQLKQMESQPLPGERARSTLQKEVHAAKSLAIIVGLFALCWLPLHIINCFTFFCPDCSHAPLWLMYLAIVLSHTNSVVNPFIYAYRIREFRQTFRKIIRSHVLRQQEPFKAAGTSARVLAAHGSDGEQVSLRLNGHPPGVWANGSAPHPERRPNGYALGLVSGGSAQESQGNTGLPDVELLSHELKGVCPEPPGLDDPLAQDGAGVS

Matrix metalloproteinase-9, sequence (P14780 whole entry): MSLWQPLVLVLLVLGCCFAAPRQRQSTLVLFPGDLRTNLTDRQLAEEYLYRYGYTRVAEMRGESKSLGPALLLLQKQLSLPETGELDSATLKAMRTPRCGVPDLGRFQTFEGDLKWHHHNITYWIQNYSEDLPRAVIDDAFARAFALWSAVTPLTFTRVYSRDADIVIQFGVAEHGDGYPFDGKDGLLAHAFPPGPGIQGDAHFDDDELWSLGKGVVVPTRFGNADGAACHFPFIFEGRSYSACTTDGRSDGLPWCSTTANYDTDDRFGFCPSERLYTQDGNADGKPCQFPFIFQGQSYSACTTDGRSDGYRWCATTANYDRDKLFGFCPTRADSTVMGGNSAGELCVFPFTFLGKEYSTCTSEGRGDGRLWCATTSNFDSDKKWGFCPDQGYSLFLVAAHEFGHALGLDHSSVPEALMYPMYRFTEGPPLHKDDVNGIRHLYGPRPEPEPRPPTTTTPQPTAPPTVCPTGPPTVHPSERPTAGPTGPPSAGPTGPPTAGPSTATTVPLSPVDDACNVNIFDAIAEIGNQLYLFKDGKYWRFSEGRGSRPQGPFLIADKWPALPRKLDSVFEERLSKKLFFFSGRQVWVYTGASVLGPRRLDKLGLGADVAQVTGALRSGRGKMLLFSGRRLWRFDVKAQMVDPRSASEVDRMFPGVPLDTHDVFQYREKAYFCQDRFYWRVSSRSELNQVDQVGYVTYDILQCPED
Nitric oxide synthase 1, sequence (P29476 whole entry): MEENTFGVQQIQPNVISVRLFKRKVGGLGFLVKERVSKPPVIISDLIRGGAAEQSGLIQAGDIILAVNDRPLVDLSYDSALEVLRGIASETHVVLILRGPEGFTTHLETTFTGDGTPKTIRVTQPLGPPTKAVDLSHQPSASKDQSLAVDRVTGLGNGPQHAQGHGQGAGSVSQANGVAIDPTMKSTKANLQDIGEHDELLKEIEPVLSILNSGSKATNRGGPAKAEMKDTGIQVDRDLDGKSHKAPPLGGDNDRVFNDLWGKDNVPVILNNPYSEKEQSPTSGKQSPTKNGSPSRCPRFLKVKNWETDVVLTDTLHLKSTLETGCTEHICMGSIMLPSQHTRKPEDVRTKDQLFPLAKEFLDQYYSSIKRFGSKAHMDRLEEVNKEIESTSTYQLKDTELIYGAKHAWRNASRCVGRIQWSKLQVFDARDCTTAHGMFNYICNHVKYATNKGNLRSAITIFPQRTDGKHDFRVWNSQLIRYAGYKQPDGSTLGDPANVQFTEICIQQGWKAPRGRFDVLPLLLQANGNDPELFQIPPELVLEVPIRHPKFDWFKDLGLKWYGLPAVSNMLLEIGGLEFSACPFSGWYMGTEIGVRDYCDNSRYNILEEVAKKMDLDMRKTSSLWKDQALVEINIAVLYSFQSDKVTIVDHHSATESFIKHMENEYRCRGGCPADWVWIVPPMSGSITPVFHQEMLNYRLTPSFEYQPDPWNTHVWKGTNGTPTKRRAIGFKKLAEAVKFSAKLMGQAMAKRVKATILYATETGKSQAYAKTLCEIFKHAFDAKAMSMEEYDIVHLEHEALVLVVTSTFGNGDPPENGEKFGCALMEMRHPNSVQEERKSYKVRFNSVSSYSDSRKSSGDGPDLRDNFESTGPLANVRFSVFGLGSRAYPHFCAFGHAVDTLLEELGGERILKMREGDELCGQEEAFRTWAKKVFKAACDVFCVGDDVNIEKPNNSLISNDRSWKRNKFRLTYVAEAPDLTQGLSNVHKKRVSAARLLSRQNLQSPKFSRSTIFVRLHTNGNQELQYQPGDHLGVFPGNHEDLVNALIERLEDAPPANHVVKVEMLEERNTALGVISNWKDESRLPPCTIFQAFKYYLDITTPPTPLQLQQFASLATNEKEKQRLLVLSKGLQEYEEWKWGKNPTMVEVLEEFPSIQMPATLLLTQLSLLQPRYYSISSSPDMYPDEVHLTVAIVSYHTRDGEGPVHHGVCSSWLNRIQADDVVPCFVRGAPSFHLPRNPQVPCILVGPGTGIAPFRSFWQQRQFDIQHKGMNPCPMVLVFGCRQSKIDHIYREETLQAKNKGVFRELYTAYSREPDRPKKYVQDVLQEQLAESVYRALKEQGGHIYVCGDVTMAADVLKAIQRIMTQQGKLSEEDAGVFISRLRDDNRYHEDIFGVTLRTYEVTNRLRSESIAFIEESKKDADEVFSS
5-hydroxytryptamine receptor 6, sequence (P50406 whole entry): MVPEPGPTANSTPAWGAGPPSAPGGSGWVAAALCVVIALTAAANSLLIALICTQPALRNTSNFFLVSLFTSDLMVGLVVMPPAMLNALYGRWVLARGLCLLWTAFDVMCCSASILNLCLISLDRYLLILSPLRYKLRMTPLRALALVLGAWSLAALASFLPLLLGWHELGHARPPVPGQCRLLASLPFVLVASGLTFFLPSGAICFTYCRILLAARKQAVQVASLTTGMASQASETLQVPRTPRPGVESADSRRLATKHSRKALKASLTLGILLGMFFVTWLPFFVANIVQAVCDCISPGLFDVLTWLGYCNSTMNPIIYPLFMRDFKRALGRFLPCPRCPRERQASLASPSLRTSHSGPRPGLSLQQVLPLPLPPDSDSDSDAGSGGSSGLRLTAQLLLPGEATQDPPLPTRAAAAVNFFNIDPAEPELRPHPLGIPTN
Vasopressin V1a receptor, sequence (P37288 whole entry): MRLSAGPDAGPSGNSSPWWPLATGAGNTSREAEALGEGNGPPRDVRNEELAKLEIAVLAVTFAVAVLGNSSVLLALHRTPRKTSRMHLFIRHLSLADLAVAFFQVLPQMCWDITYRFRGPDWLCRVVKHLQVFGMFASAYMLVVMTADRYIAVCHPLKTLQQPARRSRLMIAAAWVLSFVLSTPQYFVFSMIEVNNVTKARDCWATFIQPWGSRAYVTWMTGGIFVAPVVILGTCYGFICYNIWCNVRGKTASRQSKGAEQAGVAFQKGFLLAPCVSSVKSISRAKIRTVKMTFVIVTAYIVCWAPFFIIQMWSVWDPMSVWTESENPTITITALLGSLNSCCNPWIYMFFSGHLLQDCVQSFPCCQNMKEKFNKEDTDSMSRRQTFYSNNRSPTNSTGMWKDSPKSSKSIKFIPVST

CO[C@H]1O[C@@H]2O[C@@]3(C)CC[C@H]4[C@H](C)CC[C@@H]([C@H]1C)[C@@]24OO3
Not Active: IC50 [1] | IC50 [2] | IC50 [3] | IC50 [4] | IC50 [5] | IC50 [6] | IC50 [7] | IC50 [8]

O=c1[nH]c2ccccc2c2ccccc12
Not Active: IC50 [1] | IC50 [2] | IC50 [3] | IC50 [4] | IC50 [5] | IC50 [6] | IC50 [7] | IC50 [8]

COc1ccc(C[C@H](N)C(=O)N[C@H]2[C@@H](O)[C@H](n3cnc4c(N(C)C)ncnc43)O[C@@H]2CO)cc1 [PUROMYCIN]
Not Active: IC50 [1] | IC50 [2] | IC50 [3] | IC50 [4] | IC50 [5] | IC50 [6] | IC50 [7] | IC50 [8]

CHROMIC CHLORIDE
Not Active: IC50 [1] | Ki [1] | IC50 [2] | Ki [2] | IC50 [3] | Ki [3] | IC50 [4] | Ki [4] | IC50 [5] | Ki [5] | IC50 [6] | Ki [6] | IC50 [7] | Ki [7] | IC50 [8] | Ki [8]

C[C@@H]1[C@H](O)[C@@H](C)/C=C/C=C/C=C/C=C/C=C/C=C/C=C/[C@H](O[C@@H]2O[C@H](C)[C@@H](O)[C@H](N)[C@@H]2O)C[C@@H]2O[C@](O)(C[C@@H](O)C[C@@H](O)[C@H](O)CC[C@@H](O)C[C@@H](O)CC(=O)O[C@H]1C)C[C@H](O)[C@H]2C(=O)O [AMPHOTERICIN B]
Not Active: IC50 [1] | IC50 [2] | IC50 [3] | IC50 [4] | IC50 [5] | IC50 [6] | IC50 [7] | IC50 [8]

Cc1c(N)nc([C@H](CC(N)=O)NC[C@H](N)C(N)=O)nc1C(=O)N[C@H](C(=O)N[C@H](C)[C@@H](O)[C@H](C)C(=O)N[C@H](C(=O)NCCc1nc(-c2nc(C(=O)NCCC[S+](C)C)cs2)cs1)[C@@H](C)O)[C@@H](O[C@@H]1O[C@@H](CO)[C@@H](O)[C@H](O)[C@@H]1O[C@H]1O[C@H](CO)[C@@H](O)[C@H](OC(N)=O)[C@@H]1O)c1c[nH]cn1.[Br-] [BLEOMYCIN A2]
Not Active: IC50 [1] | IC50 [2] | IC50 [3] | IC50 [4] | IC50 [5] | IC50 [6] | IC50 [7] | IC50 [8]

O=C(O)CNCP(=O)(O)O [GLYPHOSATE]
Not Active: IC50 [1] | IC50 [2] | IC50 [3] | IC50 [4] | IC50 [5] | IC50 [6] | IC50 [7] | IC50 [8]

Nc1nc(F)nc2c1ncn2[C@@H]1O[C@H](CO)[C@@H](O)[C@@H]1O [FLUDARABINE]
Not Active: IC50 [1] | IC50 [2] | IC50 [3] | IC50 [4] | IC50 [5] | IC50 [6] | IC50 [7] | IC50 [8]

NCC(CC(=O)O)c1ccc(Cl)cc1 (stereo not drawn) [BACLOFEN]
Not Active: IC50 [1] | IC50 [2] | IC50 [3] | IC50 [4] | IC50 [5] | IC50 [6] | IC50 [7] | IC50 [8]

O=C(Nc1ccc(Cl)c(Cl)c1)c1cc(Cl)cc(Cl)c1O [3,3',4',5-TETRACHLOROSALICYLANILIDE]
Not Active: IC50 [1] | IC50 [2] | IC50 [3] | IC50 [4] | IC50 [5] | IC50 [6] | IC50 [7] | IC50 [8]
